Like-named read-outs stand apart in the source and are kept apart here. Marks after values point to notes of the source that are not given here.
Key:
[1] = system: osteoclast differentiation; test: Inhibitory effects on osteoclast differentiation (co-culture of bone marrow cells with osteoblast, TRAP staining); format: cell-based, mice; details: Mus musculus, Osteoclast, 168 h, co-culture of bone marrow cells and osteoblast, 7 days, TRAP-positive osteoclasts versus controls, read-out: % inhibitory activity on osteoclastogenesis
Summary of the method: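 Bone marrow cells from 6–8-week male ddY mice co-cultured with neonatal ICR mouse calvarial osteoblasts in α-MEM/FBS with dexamethasone (10^−7M) and vitamin D3 (10^−8M) for 7 days, compound and medium renewed every 2–3 days. TRAP-positive cells with ≥3 nuclei counted; inhibition given as percent of control.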

[2] = system: osteoblast; test: Effect on bone formation (osteoblast nodule mineralization, Alizarin red S); format: cell-based, ICR mice; details: calvarial osteoblast in osteogenic differentiation medium
Protocol: The osteoblast, treated in this experiment, was prepared from the osteoblast as prepared in the above.
The osteoblast, isolated from sequential enzymatic treatment of calvariae from neonated ICR mice, was cultured in α-MEM medium containing 10% FBS for 4˜5 days. The osteoblast was also cultured for 24 hr after seeding the cells on a 12 well plate (10^5 cell/well), and medium was exchanged with the osteogenic differentiation medium containing 10 mM β-glycerophosphate and 50 μg/ml ascorbic acid.
The test substances at the concentration of 0.1 uM and 0.1 nM were added to the above medium for evaluating the effect promoting bone formation. The differentiation medium containing the test substances was exchanged every 3 or 4 days for 14 to 21 days until confirming the nodule mineralization.
The cell was rinsed twice with distilled water, and fixed by the 10% formalin solutions for 30 minutes. Alizarin red S and Von-kossa Solution were treated on the plate for measuring deposited calcium and phosphate in cell matrix, and the activity of the test substances on the bone formation was analyzed by determining stained area.
Additionally, for the purpose of estimating quantitative Arizarin red S in cell matrix, stained Arizarin red S was extracted by treating 10 mM sodium phosphate solution (pH 7.0), containing 10% cetylpyridinium chloride, for 15˜30 minutes in the shaking incubator, and then the amount of the deposited calcium was estimated by calculating the absorbance of the extracted Arizarin red S at 564 nm. […]

[3] = system: rat models subjected to rib fracture; test: Effect of promoting fracture healing in rib fracture-induced rat model (callus volume, callus osteoid volume); format: in vivo, SD rats
Protocol: The benzamidine compounds were assayed for therapeutic effect on bone fracture in rat models subjected to rib fracture. Benzamidine derivates are dosed from 2 days after operation for 2 weeks, and the changes on the volume and histology of callus were observed.
A total of 54 SD rats (8 weeks old upon receipt, Jung Ang Lab. Animal Co., Korea) were used. While being housed at a density of three to a plastic cage, the experimental animals were kept in a breeding room under controlled temperature (20-25° C.) and humidity (30-35%). Under light-dark cycles of 12 hours, the rats were allowed to have free access to feedstuff and tap water.
200 mg of benzamidine compounds (Methansulfonic acid or Hydrochloride) were completely dissolved in 5 ml of sterilized distilled water. The benzamidine derivatives in the solutions was orally administered at doses of 200 mg per kg of body weight once a day for 2 weeks from day 2 of the surgery.
8th and 9th rib of each animal was exposed by general operation under ketamine HCl and xylazine HCl anesthesia, and the exposed ribs were crossly dissected using surgical scissors. After rib-fracture, surgical wounds were closed with general skin suture.
8th and 9th ribs of each animal were separated at sacrifice and then the long axis and short axis of callus were calculated as mm units. The volume of callus was calculated as following Equation 2. Callus volume(mm^3)=(a×b^2)/2 Equation 2 • a: long diameter of bony callus • b: short diameter of bony callus
The 8th rib including fracture sites of each rat was separated and fixed in 10% neutral buffered formalin, and then decalcified in decalcifying solution (24.4% formic acid, and 0.5N sodium hydroxide) for 5 days (mixed decalcifying solution was exchanges once a day for 5 days). After decalcification, the rib was embedded in paraffin, sectioned (3˜4 μm) and stained with hematoxylin-eosin or Masson's trichrome for composition of callus observation.
Osteloid volume (OV/callus) in callus regions of prepared histological specimens were detected as % levels using automated image analysis (analySIS Image Processing; SIS, Germany) under microscopy.

[4] = system: mouse models of ovalbumin-induced asthma; test: Therapeutic effect in mouse model of asthma induced with ovalbumin (lung weight, total leukocytes in blood and BALF); format: in vivo, C57BL/6 mice
Protocol: The benzamidine compounds were assated for therapeutic effect on allergic inflammation in mouse models of ovalbumin-induced asthma. Starting on the day of immunization the benzamidine compounds were dosed for 17 consecutive days. The experimental animals were re-exposed to ovalbumin 14 days after the sensitization and then sacrificed 3 days after the re-exposure. Changes in lung weight, cellular components of peripheral blood and bronchoalveolar lavage fluid, and lung histopathology were observed.
A total of 110 female C57BL/6 mice (7-week-old, SLC, Japan) were adapted to a laboratory environment for 6 days before being used in earnest experiments. While being housed at a densirt of five in a plastic cage, the experimental animals were breed in a breeding room with controlled temperature (20-25° C.) and humidity (30-35%). Under light-dark cycles of 12 hours, mice were allowed to have free access to feedstuff and tap water. While asthma was induced in 100 mice by ovalbumin, 10 mice were used as a non-treated group.
200 mg of benzamidine compounds (Methansulfonic acid or Hydrochloride) were completely dissolved in 5 ml of sterilized distilled water. The benzamidine compound in the solutions was orally administered at doses of 200 mg per kg of body weight once a day from the day of the sensitization with ovalbumin. The control group was administered with equal volumes of sterilized distilled water in the same manner.
A solution of 200 μg of ovalbumin (Grade VI; Sigma, st. Louis, Mo., USA) and 180 mg of aluminium hydroxide (Al(OH)3, dried powder gel; Aldrich, Milwaukee, USA) in 4 ml of physiological saline was allowed to stand at 4° C. overnight and was administered to the experimental animals (200 μl, abdominal injection) for sensitization. As for the non-treated group, a solution of only aluminium hydroxide in saline was injected. 15 days after sensitization, a 1.5% ovalbumin solution was sprayed in air using a nebulizer, followed by exposing the experimental animals to the spray for 10 min to induce asthma therein. The non-treated group was exposed only to saline in the same manner. All the experimental animals were sacrificed 3 days after the exposure.
On the final day of experiment, the lungs were separated form adjacent organs. The removed lungs were weight among individual animals, the relative weight of the lungs was calculated as a percentage of body weight using the following Equation 3. Relative weight of Lung(%)=(Absolute lung weight/Body weight)×100 Equation 3
On the final day of experiment, all the experimental animals were etherized and underwent laparotomy to expose the abdominal vena cava, from which 1 ml of blood was the taken. Using a hemocytometer, a blood sample was measured for total leukocyte counts in a ×10^3/1 mm^3 units.
On the final day of experiment, secretions present in bronchi and alveola were examined for cyrological constitution. After veing etherized, the experimental animals were operated to open the cervical region and the thorax. The jugular vein was allowed to bleed, followed by endotracheal intubation. 3 ml of phosphate buffered saline was injected twice through the tube and the thorax was massaged for 30 sec to obtain cell suspension from the lungs. Using a hemocytometer, a […] was measured for total leukocyte counts in a ×10^5/1 ml units.

Row | SMILES | inhibition at 1 µM ([1]; 1 μm) | bone forming activity (%) ([2]; 0.1 nM) | bone forming activity (%) ([2]; 0.1 μM) | melting point | inhibition at 1 µM ([1]; 1 m) | Changes on callus volume (mm^3) ([3]; 200 mg/kg oral once a day for 2 weeks from day 2 of surgery, 8th and 9th ribs, vehicle control 37.22 ± 8.23) | Changes on callus osteoid volume (OV/callus, %) ([3]; 200 mg/kg oral once a day for 2 weeks, 8th rib, vehicle control 35.88 ± 5.06) | Changes on the lung weight, Absolute ([4]; 200 mg/kg oral once a day from sensitization, vehicle control 0.134 ± 0.012, sham 0.110 ± 0.009) | Changes on the lung weight, Relative (%) ([4]; 200 mg/kg oral once a day, % of body weight, vehicle control 0.780 ± 0.103, sham 0.694 ± 0.049)
1 | N=C(NO)c1ccc(OCCCCCOc2ccc(-c3csc(-c4cccnc4)n3)cc2)cc1 [Example 7, N-hydroxy-4-(5-[4-(2-pyridin-3-yl-1,3-thiazol-4-yl)phenoxy]pentoxy)-benzamidine] | 94.5% | 1.24% | 9.61% | 149 to 154 °C |  |  |  |  | 
2 | CNc1nc(-c2ccc(OCCCCCOc3ccc(C(=N)NO)cc3)cc2)c(CCCl)s1 [Example 115, N-hydroxy-4-(5-[4-(5-(2-chloroethyl)-2-methylamino-1,3-thiazol-4-yl)phenoxy]pentoxy)-benzamidine] |  |  |  |  | 96% | 24.06 ± 9.64* mm^3 | 41.94 ± 6.33% | 0.114 ± 0.009 g | 0.705 ± 0.046%

From US8178688B2, “Benzamidine derivatives, process for the preparation thereof and pharmaceutical composition comprising the same” (Dong Wha Pharmaceutical Co., Ltd., priority 2004, dated 2012)
